Test results taken from PubChem BioAssay (NCI).
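Abbreviation: GI50, concentration required for 50% inhibition of growth. The concentration for full growth arrest is given as TGI.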

Key:
Test in all cases: inhibition of tumour cell growth, NCI panel, 384-well format
786-0 renal = test system: 786-0 renal
A498 renal = test system: A498 renal
A549 NSCLC = test system: A549 NSCLC
ACHN renal = test system: ACHN renal
BT-549 breast = test system: BT-549 breast
CAKI-1 renal = test system: CAKI-1 renal
CCRF-CEM leukemia = test system: CCRF-CEM leukemia
COLO 205 colon = test system: COLO 205 colon
DU-145 prostate = test system: DU-145 prostate
HCC-2998 colon = test system: HCC-2998 colon
HCT-116 colon = test system: HCT-116 colon
HCT-15 colon = test system: HCT-15 colon
HL-60(TB) leukemia = test system: HL-60(TB) leukemia
HOP-62 NSCLC = test system: HOP-62 NSCLC
HOP-92 NSCLC = test system: HOP-92 NSCLC
HT29 colon = test system: HT29 colon
IGROV1 ovarian = test system: IGROV1 ovarian
K-562 leukemia = test system: K-562 leukemia
KM12 colon = test system: KM12 colon
LOX IMVI melanoma = test system: LOX IMVI melanoma
M14 melanoma = test system: M14 melanoma
MALME-3M melanoma = test system: MALME-3M melanoma
MCF7 breast = test system: MCF7 breast
MDA-MB-231 breast = test system: MDA-MB-231 breast
MDA-MB-435 melanoma = test system: MDA-MB-435 melanoma
MDA-MB-468 breast = test system: MDA-MB-468 breast
MOLT-4 leukemia = test system: MOLT-4 leukemia
NCI-H226 lung = test system: NCI-H226 lung
NCI-H23 lung = test system: NCI-H23 lung
NCI-H322M lung = test system: NCI-H322M lung
NCI-H460 NSCLC = test system: NCI-H460 NSCLC
NCI-H522 lung = test system: NCI-H522 lung
NCI/ADR-RES ovarian = test system: NCI/ADR-RES ovarian
OVCAR-3 ovarian = test system: OVCAR-3 ovarian
OVCAR-4 ovarian = test system: OVCAR-4 ovarian
OVCAR-5 ovarian = test system: OVCAR-5 ovarian
OVCAR-8 ovarian = test system: OVCAR-8 ovarian
PC-3 prostate = test system: PC-3 prostate
RPMI-8226 leukemia = test system: RPMI-8226 leukemia
RXF 393 renal = test system: RXF 393 renal
SF-268 CNS = test system: SF-268 CNS
SF-295 CNS = test system: SF-295 CNS
SF-539 CNS = test system: SF-539 CNS
SK-MEL-2 melanoma = test system: SK-MEL-2 melanoma
SK-MEL-28 melanoma = test system: SK-MEL-28 melanoma
SK-MEL-5 melanoma = test system: SK-MEL-5 melanoma
SK-OV-3 ovarian = test system: SK-OV-3 ovarian
SN12C renal = test system: SN12C renal
SNB-19 CNS = test system: SNB-19 CNS
SR leukemia = test system: SR leukemia
SW-620 colon = test system: SW-620 colon
T-47D breast = test system: T-47D breast
TK-10 renal = test system: TK-10 renal
U251 glioblastoma = test system: U251 glioblastoma
UACC-257 melanoma = test system: UACC-257 melanoma
UACC-62 melanoma = test system: UACC-62 melanoma
UO-31 renal = test system: UO-31 renal

SMILES: Cc1cc(NC(=O)c2ccc(NS(=O)(=O)CCO)cc2N2CCC3(CC2)CC3)nc(N2CCC(F)(F)CC2)n1
- GI50 ([…]-0 renal): 1630 nM
- TGI (786-0 renal): 3070 nM
- GI50 (A498 renal): 484 nM
- TGI (A498 renal): 2350 nM
- GI50 (A549 NSCLC): 2530 nM
- TGI (A549 NSCLC): 6670 nM
- GI50 (ACHN renal): 2020 nM
- TGI (ACHN renal): 4940 nM
- GI50 (BT-549 breast): 24.6 nM
- TGI (BT-549 breast): 1260 nM
- GI50 (CAKI-1 renal): 1890 nM
- TGI (CAKI-1 renal): 6280 nM
- GI50 (CCRF-CEM leukemia): 1720 nM
- TGI (CCRF-CEM leukemia): 3120 nM
- GI50 (COLO 205 colon): 1660 nM
- TGI (COLO 205 colon): 3280 nM
- GI50 (DU-145 prostate): 56.3 nM
- TGI (DU-145 prostate): 2700 nM
- GI50 (HCC-2998 colon): 72.5 nM
- TGI (HCC-2998 colon): 402 nM
- GI50 (HCT-116 colon): 1440 nM
- TGI (HCT-116 colon): 2850 nM
- GI50 (HCT-15 colon): 1660 nM
- TGI (HCT-15 colon): 3060 nM
- GI50 (HL-60(TB) leukemia): 2200 nM
- TGI (HL-60(TB) leukemia): 3670 nM
- GI50 (HOP-62 NSCLC): 1940 nM
- TGI (HOP-62 NSCLC): 3650 nM
- GI50 (HOP-92 NSCLC): 1890 nM
- TGI (HOP-92 NSCLC): 3410 nM
- GI50 (HT29 colon): 31.7 nM
- TGI (HT29 colon): 152 nM
- GI50 (IGROV1 ovarian): 1940 nM
- TGI (IGROV1 ovarian): 4960 nM
- GI50 (K-562 leukemia): 1570 nM
- TGI (K-562 leukemia): 3040 nM
- GI50 (KM12 colon): 694 nM
- TGI (KM12 colon): 2180 nM
- GI50 (LOX IMVI melanoma): 2120 nM
- TGI (LOX IMVI melanoma): 3580 nM
- GI50 (M14 melanoma): 328 nM
- TGI (M14 melanoma): 1250 nM
- GI50 (MALME-3M melanoma): 614 nM
- TGI (MALME-3M melanoma): 3420 nM
- GI50 (MCF7 breast): 2090 nM
- TGI (MCF7 breast): 4910 nM
- GI50 (MDA-MB-231 breast): 74.3 nM
- TGI (MDA-MB-231 breast): 2480 nM
- GI50 (MDA-MB-435 melanoma): 686 nM
- TGI (MDA-MB-435 melanoma): 5300 nM
- GI50 (MDA-MB-468 breast): 35.2 nM
- TGI (MDA-MB-468 breast): 648 nM
- GI50 (MOLT-4 leukemia): 1760 nM
- TGI (MOLT-4 leukemia): 3180 nM
- GI50 (NCI-H226 lung): 1570 nM
- TGI (NCI-H226 lung): 3130 nM
- GI50 (NCI-H23 lung): 1310 nM
- TGI (NCI-H23 lung): 2670 nM
- GI50 (NCI-H322M lung): 564 nM
- TGI (NCI-H322M lung): 3370 nM
- GI50 (NCI-H460 NSCLC): 298 nM
- TGI (NCI-H460 NSCLC): 1050 nM
- GI50 (NCI-H522 lung): 1860 nM
- TGI (NCI-H522 lung): 4330 nM
- GI50 (NCI/ADR-RES ovarian): 101 nM
- TGI (NCI/ADR-RES ovarian): 703 nM
- TGI (OVCAR-3 ovarian): 23.5 nM
- GI50 (OVCAR-4 ovarian): 258 nM
- TGI (OVCAR-4 ovarian): 1300 nM
- GI50 (OVCAR-5 ovarian): 2010 nM
- TGI (OVCAR-5 ovarian): 4700 nM
- GI50 (OVCAR-8 ovarian): 71.6 nM
- TGI (OVCAR-8 ovarian): 2610 nM
- GI50 (PC-3 prostate): 1850 nM
- TGI (PC-3 prostate): 3390 nM
- GI50 (RPMI-8226 leukemia): 1590 nM
- TGI (RPMI-8226 leukemia): 2950 nM
- GI50 (RXF 393 renal): 13.5 nM
- TGI (RXF 393 renal): 66.6 nM
- GI50 (SF-268 CNS): 1420 nM
- TGI (SF-268 CNS): 3310 nM
- GI50 (SF-295 CNS): 373 nM
- TGI (SF-295 CNS): 1140 nM
- GI50 (SF-539 CNS): 53.7 nM
- TGI (SF-539 CNS): 391 nM
- GI50 (SK-MEL-2 melanoma): 89.9 nM
- TGI (SK-MEL-2 melanoma): 2910 nM
- GI50 (SK-MEL-28 melanoma): 792 nM
- TGI (SK-MEL-28 melanoma): 5840 nM
- GI50 (SK-MEL-5 melanoma): 1680 nM
- TGI (SK-MEL-5 melanoma): 3070 nM
- GI50 (SK-OV-3 ovarian): 89.5 nM
- TGI (SK-OV-3 ovarian): 5810 nM
- GI50 (SN12C renal): 1850 nM
- TGI (SN12C renal): 3530 nM
- GI50 (SNB-19 CNS): 1440 nM
- TGI (SNB-19 CNS): 3110 nM
- GI50 (SR leukemia): 22.1 nM
- TGI (SR leukemia): 135 nM
- GI50 (SW-620 colon): 1650 nM
- TGI (SW-620 colon): 3140 nM
- GI50 (T-47D breast): 694 nM
- TGI (T-47D breast): 14100 nM
- GI50 (TK-10 renal): 2160 nM
- TGI (TK-10 renal): 4760 nM
- GI50 (U251 glioblastoma): 60.8 nM
- TGI (U251 glioblastoma): 479 nM
- GI50 (UACC-257 melanoma): 390 nM
- TGI (UACC-257 melanoma): 1960 nM
- GI50 (UACC-62 melanoma): 1590 nM
- TGI (UACC-62 melanoma): 3490 nM
- GI50 (UO-31 renal): 1250 nM
- TGI (UO-31 renal): 2890 nM
